Holding throughout (type): biochemical
One assay concerns the target T1, FXIII (Homo sapiens, UniProt P00488).
T1 sequence (P00488 1-732): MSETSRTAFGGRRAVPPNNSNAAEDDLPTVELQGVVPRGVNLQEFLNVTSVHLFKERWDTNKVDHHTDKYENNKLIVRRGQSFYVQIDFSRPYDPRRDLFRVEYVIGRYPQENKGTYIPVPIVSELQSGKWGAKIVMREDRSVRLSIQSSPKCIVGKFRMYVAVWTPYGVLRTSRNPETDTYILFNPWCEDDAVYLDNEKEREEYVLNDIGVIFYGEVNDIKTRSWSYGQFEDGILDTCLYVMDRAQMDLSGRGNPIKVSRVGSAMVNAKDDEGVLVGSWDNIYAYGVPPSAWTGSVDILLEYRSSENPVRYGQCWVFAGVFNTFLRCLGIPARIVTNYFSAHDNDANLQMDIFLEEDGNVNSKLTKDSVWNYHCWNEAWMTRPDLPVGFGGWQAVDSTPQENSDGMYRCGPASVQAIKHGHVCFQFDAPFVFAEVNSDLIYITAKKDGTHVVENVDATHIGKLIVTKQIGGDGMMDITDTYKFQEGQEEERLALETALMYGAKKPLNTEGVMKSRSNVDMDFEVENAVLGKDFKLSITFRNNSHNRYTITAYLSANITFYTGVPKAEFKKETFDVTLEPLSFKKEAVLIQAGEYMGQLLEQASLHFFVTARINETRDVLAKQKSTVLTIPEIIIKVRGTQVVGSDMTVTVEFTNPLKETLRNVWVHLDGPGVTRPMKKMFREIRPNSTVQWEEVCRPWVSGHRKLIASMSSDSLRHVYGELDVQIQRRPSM
In words: Transglutaminase inhibition, IC50 at FXIII.

Assay [1] addresses T2, recombinant human tissue transglutaminase (His6-rh-TG2) (Homo sapiens, UniProt P21980).
T2 sequence (P21980 1-687): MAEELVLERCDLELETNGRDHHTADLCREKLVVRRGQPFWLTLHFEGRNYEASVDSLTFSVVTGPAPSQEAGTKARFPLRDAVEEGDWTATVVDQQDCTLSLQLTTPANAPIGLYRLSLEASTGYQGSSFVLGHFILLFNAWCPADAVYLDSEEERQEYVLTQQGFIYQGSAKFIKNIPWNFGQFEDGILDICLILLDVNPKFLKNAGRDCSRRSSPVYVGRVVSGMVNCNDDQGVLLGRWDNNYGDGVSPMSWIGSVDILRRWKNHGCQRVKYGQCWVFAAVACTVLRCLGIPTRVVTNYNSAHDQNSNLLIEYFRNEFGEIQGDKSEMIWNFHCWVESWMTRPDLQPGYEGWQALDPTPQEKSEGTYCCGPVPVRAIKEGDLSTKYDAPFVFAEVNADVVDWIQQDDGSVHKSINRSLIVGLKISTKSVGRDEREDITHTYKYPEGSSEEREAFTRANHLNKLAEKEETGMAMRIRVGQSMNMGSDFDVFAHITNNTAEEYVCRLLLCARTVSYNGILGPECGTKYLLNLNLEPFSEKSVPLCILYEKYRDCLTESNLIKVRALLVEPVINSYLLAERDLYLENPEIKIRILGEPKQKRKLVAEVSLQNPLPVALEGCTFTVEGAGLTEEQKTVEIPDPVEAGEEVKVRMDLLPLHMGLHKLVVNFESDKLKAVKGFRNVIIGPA
Description: Inactivation of human tissue transglutaminase, fluorescence assay, IC50. To be noted: 5 min preincubation, 37° C. On the procedure:
250 μg of lyophilized his-tagged recombinant human tissue transglutaminase (His6-rh-TG2) are reconstituted by the addition of 150 μl of water (resulting buffer 50 mM of NaH2PO4, 150 mM of NaCl, pH=8).
A 10 mM inhibitor stock solution in DMSO is prepared and diluted with buffer (50 mM of Tris-HCl, 10 mM of CaCl2, 5 mM of DTT, pH=7.5, respectively) to the 20-fold of the concentration desired for the inhibition mixture (at least 1/50 dilution resulting in 2% DMSO concentration).
900 μl of an assay solution composed of 55.56 mM of Tris, 11.11 mM of CaCl2, 0.11% PEG8000, 5.56 mM of DTT, 5.56 mM of glycine methyl ester and 50 μM of Abz-APE(CAD-DNP)QEA-OH, (patent number:), pH=7.5 are placed in a cuvette and brought to a temperature of 37° C. in the measuring cell of a spectrophotometer. 50 μl of the respective inhibitor solution are added to said solution (resulting in a concentration of less than 0.2% of DMSO in the mixture).
7 μl of the transglutaminase solution reconstituted above are diluted with 51 μl of buffer (50 mM of Tris, 100 mM of NaCl, 5 mM of DTT, pH=7.5). 50 μl of said enzyme solution (10 μg His6-rhTG2) are added to the assay solution containing the respective inhibitor concentration. The mixture is incubated for 5 min at 37° C. before the measurement is performed. λexc=313 nm and λem=418 nm, 15 min)
The resulting enzyme activity was measured by analyzing the slope of the straight line obtained by the increase in fluorescence.
DMSO is used instead of inhibitor stock solution in order to determine the non-inhibited enzyme activity. IC50 values are determined by plotting the resulting enzyme activity against the logarithm of the inhibitor concentration. IC50 is defined as the concentration of an inhibitor at which enzyme activity is reduced to 50% after 5 min of preincubation.

The next assay deals with T3, TG1 (Homo sapiens, UniProt P22735).
T3 sequence (P22735 1-817): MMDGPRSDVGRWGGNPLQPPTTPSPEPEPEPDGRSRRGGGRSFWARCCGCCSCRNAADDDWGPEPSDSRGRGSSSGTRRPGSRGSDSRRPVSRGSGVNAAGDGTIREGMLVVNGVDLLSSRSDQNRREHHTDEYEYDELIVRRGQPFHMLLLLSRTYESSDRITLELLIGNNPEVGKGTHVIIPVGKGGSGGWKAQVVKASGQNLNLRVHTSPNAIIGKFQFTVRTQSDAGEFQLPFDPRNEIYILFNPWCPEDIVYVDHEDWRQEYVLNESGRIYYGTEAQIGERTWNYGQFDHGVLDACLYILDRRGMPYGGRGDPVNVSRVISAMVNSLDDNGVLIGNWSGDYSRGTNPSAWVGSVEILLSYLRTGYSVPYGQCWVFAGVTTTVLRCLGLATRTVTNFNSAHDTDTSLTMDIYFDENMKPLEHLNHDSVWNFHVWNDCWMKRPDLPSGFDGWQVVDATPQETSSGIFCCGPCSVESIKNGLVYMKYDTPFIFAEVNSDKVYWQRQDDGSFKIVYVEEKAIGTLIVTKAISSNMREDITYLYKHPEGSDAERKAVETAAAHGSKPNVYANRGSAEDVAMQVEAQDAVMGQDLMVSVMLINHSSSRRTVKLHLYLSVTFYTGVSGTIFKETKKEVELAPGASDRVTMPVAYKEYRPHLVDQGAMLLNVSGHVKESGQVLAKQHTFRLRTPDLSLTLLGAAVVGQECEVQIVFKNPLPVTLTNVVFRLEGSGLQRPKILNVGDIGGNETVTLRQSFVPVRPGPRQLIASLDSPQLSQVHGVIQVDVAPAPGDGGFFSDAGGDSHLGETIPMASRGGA
In words: Transglutaminase inhibition, IC50 at TG1.

*1 amine or outer side, *2 acyl side, *3 side chain or, on linkers, in order; H or OH if unused. Where a SMILES comes first, the peptide text is derived from it. [ ]: non-standard residue; d: D form. The star is where a group is joined. ξ: configuration not given here. Nle(5E-ene,6-CO2Et) = CCOC(=O)/C=C/CC[C@H](N)C(=O)O; X2 = COC(=O)/C=C/CC[C@H](N[*:1])C(=O)[*:2]; Ile(3ξ) = CCC(C)[C@H](N)C(=O)O; Cbz = O=C(OCc1ccccc1)*

A word on the IC50: it is the concentration at which inhibition is half-maximal. For the compound `CCOC(=O)/C=C/CC[C@H](NC(=O)OCc1ccccc1)C(=O)N[C@H](C(=O)N1CCC[C@H]1C(=O)NCCC(C)C)C(C)C` [Compound 5], the figures for the IC50 (on FXIII (Table 1); in assay [1] (Table 1)) were more than 50 µM and 125 nM, respectively.

For the compound `CCC(C)[C@H](NC(=O)[C@@H](NC(=O)[C@H](CC(C)C)NC(=O)[C@H](CO)NC(=O)[C@H](CC/C=C/C(=O)OC)NC(=O)CNC(=O)[C@@H]1CCCN1C(=O)CNC(=O)[C@H](CC(C)C)NC(C)=O)C(C)C)C(=O)NCC(=O)OC` (stereo partly drawn) [Compound 8, N^α-acetyl-L-leucinyl-glycinyl-L-prolinyl-glycinyl-{[(E)-(L)-6-amino-hept-2-ene-dicarboxylic acid]-1-ethanoyl}-L-serinyl-L-leucinyl-L-valinyl-L-isoleucinyl-glycine methyl ester] (Ac-LGPG[X2]SLV[Ile(3ξ)]G-OMe), the results for the IC50 (at FXIII (Table 1); against TG1 (Table 1); in assay [1] (Table 1)) were 0.5 µM, more than 50000 nM and more than 50000 nM, respectively.

For `CCOC(=O)/C=C/CC[C@H](NC(=O)OCc1ccccc1)C(=O)N[C@@H](Cc1ccccc1)C(=O)OC` [Compound 3, N^α-benzyloxycarbonyl-{[(E)-(L)-6-amino-hept-2-ene-dicarboxylic acid]-1-ethanoyl}-L-phenylalanine methyl ester], the IC50 is 2.5 µM on FXIII (Table 1), 200 nM on TG1 (Table 1) and 8000 nM in assay [1] (Table 1).

As to `CC(C)CC(NC(=O)C1CCCCN1C(=O)C(Cc1ccccc1)NC(=O)C(CCC=CC(=O)OCc1ccccc1)NC(=O)OCc1ccccc1)C(N)=O` [Compound 3.2.8, N^α-benzyloxycarbonyl)-{[(E)-(L)-6-amino-hept-2-ene-dicarboxylic acid]-1-benzoyl}-L-phenylalaninyl-L-homoprolinyl-L-leucinyl amide], the values for the IC50 (at FXIII (Table 2); at TG1 (Table 2); in assay [1] (Table 2)) were more than 100 µM, 825 nM and 130 nM, respectively.

Turning to `COC(=O)/C=C/CC[C@H](NC(=O)[C@H](CC(N)=O)NC(C)=O)C(=O)N[C@@H](CCC(=O)O)C(=O)N[C@@H](C)C(=O)N[C@H](C(=O)OC)C(C)C` [Compound 7, N^α-acetyl-L-asparaginyl-{[(E)-(L)-6-amino-hept-2-ene-dicarboxylic acid]-1-methanoyl}-L-glutamyl-L-alaninyl-L-valine methyl ester] (Ac-N[X2]EAV-OMe), the IC50 was 2 µM against FXIII (Table 1), more than 50000 nM on TG1 (Table 1) and more than 50000 nM in assay [1] (Table 1).

Consider `COC(=O)[C@H](CC(C)C)NC(=O)[C@@H]1CCCN1C(=O)[C@H](CCC(N)=O)NC(=O)[C@H](CC/C=C/S(C)(=O)=O)NC(=O)OCc1ccccc1` [Compound 3.2.1, N^α-benzyloxycarbonyl-{[(E)-(L)-2-amino-6-methanesulfonyl]-hex-5-enyl}-L-glutaminyl-L-prolinyl-L-leucine methyl ester], for which the IC50 was more than 100 µM against FXIII (Table 2), 250 nM against TG1 (Table 2) and 54 nM in assay [1] (Table 2).

For the compound `CCCCCNC(=O)/C=C/CC[C@H](NC(C)=O)C(=O)N[C@@H](CCC(N)=O)C(=O)N[C@@H](CC(=O)O)C(=O)N1CCC[C@H]1C(=O)OC` [Compound 3.2.6, Nr-acetyl-{[(E)-(L)-6.amino-hept-2-ene-dicarboxylic acid]-1-pentylamido}-L-glutaminyl-L-asparatyl-L-proline methyl ester], the IC50 was more than 100 µM against FXIII (Table 2), 23000 nM against TG1 (Table 2) and more than 100000 nM in assay [1] (Table 2).

Consider `COC(=O)[C@H](CC(C)C)NC(=O)[C@@H]1CCCN1C(=O)[C@H](CCC(N)=O)NC(=O)[C@H](CC/C=C/S(=O)(=O)N(C)C)NC(=O)OCc1ccccc1` [Compound 3.2.2], for which the figures for the IC50 (against FXIII (Table 2); against TG1 (Table 2); in assay [1] (Table 2)) were more than 100 µM, 1300 nM and 760 nM, respectively.

For the compound `COC(=O)C(CC(C)C)NC(=O)C1CCCN1C(=O)C(CCC(N)=O)NC(=O)C(CCC=CC(=O)O)NC(=O)OCc1ccccc1` [Compound 3.2.5, N^α-benzyloxycarbonyl)-[(E)-(L)-6-amino-hept-2-ene-dicarboxylic acid]-L-glutaminyl-L-prolinyl-L-leucine methyl ester], the IC50 is more than 100 µM at FXIII (Table 2) and 23000 nM in assay [1] (Table 2).

Turning to `CCOC(=O)/C=C/CC[C@H](NC(=O)OCc1ccccc1)C(=O)N[C@@H](CCC(N)=O)C(=O)N1CCC[C@H]1C(=O)N[C@@H](CC(C)C)C(=O)OC` [Compound 2, N^α-benzyloxycarbonyl-{[(E)-(L)-6-amino-hept-2-ene-dicarboxylic acid]-1-ethanoyl}-L-glutaminyl-L-prolinyl-L-leucine methyl ester] (Cbz-[Nle(5E-ene,6-CO2Et)]QPL-OMe), the IC50 is more than 50 µM at FXIII (Table 1) and 20 nM in assay [1] (Table 1).

Regarding `COC(=O)/C=C/CC[C@H](NC(=O)OCc1ccccc1)C(=O)N[C@@H](CCC(N)=O)C(=O)N1CCC[C@H]1C(=O)OC` [Compound 4, N^α-benzyloxycarbonyl-{[(E)-(L)-6-amino-hept-2-ene-dicarboxylic acid]-1-methanoyl}-L-glutaminyl-L-proline methyl ester], the IC50 against FXIII (Table 1) was more than 50 µM; in assay [1] (Table 1) it was 350 nM.

Consider `CCOC(=O)/C=C/CC[C@@H](C(=O)N[C@H](C(=O)N1CCC[C@H]1C(=O)OC)C(C)C)N1CCCC1=O` [Compound 6, [(E)-(L)-6-(2-oxo-pyrrolidon-1-yl)-hept-2-ene-dicarboxylic acid 1-ethanoyl]-L-valinyl-L-proline methyl ester], for which the IC50 is more than 50 µM at FXIII (Table 1) and 15000 nM in assay [1] (Table 1).

For the origin of these results see US8471063B2, “Michael systems as transglutaminase inhibitors” (Zedira GmbH, priority 2006, dated 2013).
